Patent publication US20240182508A1, “AMPHIPATHIC COMPOUND, PREPARATION METHOD THEREFOR, AND SURFACTANT COMPOSITION COMPRISING SAME” (priority 2022, published 2024)

Assays:
[1] = CMC (critical micelle concentration) from surface tension by the stalagmometric method; format: physicochemical; conditions: graph of surface tension versus sample concentration
Procedure: The surface tension values of steviol bisglycoside (rebaudioside A) and steviol monoglycoside-acid, ester, and amide obtained in Examples 1, 4, and 5 were measured and compared at various concentrations using the stalagmometric method. In addition, through a graph of surface tension versus sample concentration, CMC was measured to be 5.14 mM (rebaudioside A), 1.1 mM (Example 1, steviolbioside), 0.15 mM (Example 4, rebaudioside B methyl ester), and 0.5 mM (Example 5, rebaudioside B n-hexylamide).

[2] = Foaming properties (foam maintained on standing, measuring cylinder); format: physicochemical; conditions: 10 mg in 5 ml distilled water, shaken 10 seconds
Procedure: The foaming properties of steviol monoglycoside-ester obtained in Example 4 were confirmed. 5 ml of distilled water and 10 mg of steviol monoglycoside-ester obtained in Example 4 were mixed in a measuring cylinder to form micelles, then shaken for 10 seconds to generate foam, then allowed to stand at room temperature to compare the amount of foam.
Thereby, it was confirmed that about 50% of the foam was maintained after 15 minutes and about 30% of the foam was maintained after 30 minutes, based on the height of the foam.

Row | SMILES | CMC [1] [mM] | foam maintained, based on the height of the foam ([2]; after 15 minutes at room temperature) | foam maintained, based on the height of the foam ([2]; after 30 minutes at room temperature)
1 | C=C1C[C@@]23CC[C@H]4[C@@](C)(CCC[C@@]4(C)C(=O)O)[C@@H]2CC[C@]1(O[C@@H]1O[C@H](CO)[C@@H](O)[C@H](O)[C@H]1O[C@@H]1O[C@H](CO)[C@@H](O)[C@H](O)[C@H]1O)C3 [Example 1, steviolbioside] | 1.1 |  | 
2 | C=C1C[C@@]23CC[C@H]4[C@@](C)(CCC[C@@]4(C)C(=O)OC)[C@@H]2CC[C@]1(O[C@@H]1O[C@H](CO)[C@@H](O)[C@H](O[C@@H]2O[C@H](CO)[C@@H](O)[C@H](O)[C@H]2O)[C@H]1O[C@@H]1O[C@H](CO)[C@@H](O)[C@H](O)[C@H]1O)C3 [Example 4, rebaudioside B methyl ester] | 0.15 | about 50% | about 30%
3 | C=C1C[C@@]23CC[C@H]4[C@@](C)(CCC[C@@]4(C)C(=O)NCCCCCC)[C@@H]2CC[C@]1(O[C@@H]1O[C@H](CO)[C@@H](O)[C@H](O[C@@H]2O[C@H](CO)[C@@H](O)[C@H](O)[C@H]2O)[C@H]1O[C@@H]1O[C@H](CO)[C@@H](O)[C@H](O)[C@H]1O)C3 [Example 5, rebaudioside B n-hexylamide] | 0.5 |  | 
4 | C=C1C[C@@]23CC[C@H]4[C@@](C)(CCC[C@@]4(C)C(=O)O[C@@H]4O[C@H](CO)[C@@H](O)[C@H](O)[C@H]4O)[C@@H]2CC[C@]1(O[C@@H]1O[C@H](CO)[C@@H](O)[C@H](O[C@@H]2O[C@H](CO)[C@@H](O)[C@H](O)[C@H]2O)[C@H]1O[C@@H]1O[C@H](CO)[C@@H](O)[C@H](O)[C@H]1O)C3 [rebaudioside A, reference compound] | 5.14 |  | 
